In brackets after ≈: the same amount, converted by molar mass.
Experiments:
Test in all cases: ≥ marks a high value that may be exact or a test limit, other limits are often not marked, values filed in µg/mL are converted to µM
[1] = system: Staphylococcus aureus ATCC 33591
[2] = system: Escherichia coli ATCC 25922
Bacillus subtilis = system: Bacillus subtilis
[3] = system: Escherichia coli DH5alpha
[4] = system: Pseudomonas aeruginosa ATCC 27853
[5] = system: Staphylococcus aureus ATCC 25923
[6] = system: Candida albicans ATCC 2002
[7] = system: Pseudomonas aeruginosa CMCCB 10104
Candida albicans = system: Candida albicans
Staphylococcus aureus = system: Staphylococcus aureus
Escherichia coli = system: Escherichia coli

| Compound | MIC [2] [µM] | MIC [5] [µM] | MIC [6] [µM] | MIC [7] [µM] | also measured |
| --- | --- | --- | --- | --- | --- |
| CC[C@H](C)[C@H](NC(=O)[C@@H](N)CCCN=C(N)N)C(=O)N[C@@H](Cc1c[nH]c2ccccc12)C(=O)N[C@@H](Cc1ccccc1)C(=O)N[C@@H](CCC(N)=O)C(=O)N[C@@H](CC(N)=O)C(=O)N[C@@H](CCCN=C(N)N)C(=O)N[C@@H](CCCN=C(N)N)C(=O)N[C@@H](CCSC)C(=O)N[C@@H](CCCN=C(N)N)C(=O)N[C@@H](Cc1c[nH]c2ccccc12)C(=O)N[C@@H](CCCN=C(N)N)C(=O)N[C@@H](CCCN=C(N)N)C(N)=O [RIWFQNRRMRWRR] | 32 (≈ 62.7 µg/mL) |  |  |  | MIC [1]: ≥ 32 µM |
| CC[C@H](C)[C@H](NC(=O)[C@H](Cc1ccccc1)NC(=O)[C@@H](NC(=O)[C@H](Cc1ccccc1)NC(=O)[C@H](CCCN=C(N)N)NC(=O)[C@H](CCCCN)NC(=O)[C@H](CCCN=C(N)N)NC(=O)[C@H](CCCCN)NC(=O)[C@H](Cc1c[nH]c2ccccc12)NC(=O)[C@H](CC(C)C)NC(=O)[C@@H](NC(=O)[C@@H](N)Cc1ccc(O)cc1)C(C)C)[C@@H](C)CC)C(=O)O [YVLWKRKRFIFI] |  | 10 (≈ 16.7 µg/mL) |  |  | MIC (Bacillus subtilis): 20 µM (≈ 33.4 µg/mL); MIC [3]: 10 µM (≈ 16.7 µg/mL); MIC [4]: 30 µM (≈ 50.1 µg/mL) |
| CC(C)C[C@H](NC(=O)CN)C(=O)N[C@@H](CC(C)C)C(=O)N[C@@H](CC(=O)O)C(=O)N[C@H](C(=O)N[C@@H](Cc1ccccc1)C(=O)N[C@@H](CCCCN)C(=O)N[C@@H](CC(N)=O)C(=O)N[C@@H](CC(C)C)C(=O)N[C@@H](C)C(=O)N[C@@H](CC(C)C)C(=O)N[C@@H](CC(N)=O)C(=O)N[C@@H](C)C(=O)N[C@@H](C)C(=O)N[C@@H](CCC(=O)O)C(=O)N[C@@H](CO)C(=O)N[C@@H](C)C(=O)NCC(=O)N[C@H](C(=O)N[C@@H](CO)C(=O)N[C@H](C(=O)N[C@@H](CC(C)C)C(=O)N[C@@H](CC(N)=O)C(=O)N[C@@H](CO)C(=O)N[C@@H](CC(C)C)C(=O)N[C@@H](CO)C(=O)N[C@H]1CSSC[C@@H](C(=O)O)NC(=O)[C@H]([C@@H](C)O)NC(=O)[C@H](CCCCN)NC(=O)[C@H](CO)NC(=O)[C@H](CC(C)C)NC(=O)[C@H](CCCCN)NC1=O)C(C)C)C(C)C)[C@@H](C)O [GLLDTFKNLALNAAESAGVSVLNSLSCKLSKTC] | 5.94 (≈ 20 µg/mL) | 2.97 (≈ 9.99 µg/mL) | 2.97 (≈ 9.99 µg/mL) | 5.94 (≈ 20 µg/mL) |  |
| CC[C@H](C)[C@H](NC(=O)CNC(=O)[C@@H](NC(=O)[C@H](CCCN=C(N)N)NC(=O)[C@@H](NC(=O)[C@@H](NC(=O)[C@H](CC(=O)O)NC(=O)[C@H](CCSC)NC(=O)CNC(=O)[C@@H](NC(=O)[C@H](CCC(=O)O)NC(=O)[C@H](CCCCN)NC(=O)CNC(=O)[C@@H](NC(=O)[C@H](CC(N)=O)NC(=O)[C@H](CCCCN)NC(=O)[C@H](C)NC(=O)CNC(=O)[C@H](CCCCN)NC(=O)[C@@H](NC(=O)[C@H](Cc1ccccc1)NC(=O)[C@H](CC(C)C)NC(=O)[C@H](CC(N)=O)NC(=O)[C@H](CCCCN)NC(=O)[C@@H](NC(=O)[C@H](C)NC(=O)[C@H](CCCCN)NC(=O)CNC(=O)[C@H](CO)NC(=O)[C@@H](NC(=O)[C@@H](N)CCCCN)[C@@H](C)CC)[C@@H](C)CC)[C@@H](C)CC)C(C)C)C(C)C)C(C)C)C(C)C)[C@@H](C)O)C(=O)N[C@@H](CC(=O)O)C(=O)N[C@H](C(=O)N[C@H](C(=O)NCC(=O)N[C@H]1CSSC[C@@H](C(=O)O)NC(=O)[C@H](CCC(=O)O)NC(=O)CNC(=O)[C@H](CCCCN)NC(=O)[C@H]([C@@H](C)CC)NC(=O)[C@H](CCCCN)NC1=O)C(C)C)C(C)C [KISGKAIKNLFIKGAKNVGKEVGMDVVRTGIDVVGCKIKGEC] | 0.749 (≈ 3.3 µg/mL) | 1.5 (≈ 6.6 µg/mL) | 0.749 (≈ 3.3 µg/mL) | 1.5 (≈ 6.6 µg/mL) |  |
| C[C@H](NC(=O)[C@H](CCCN=C(N)N)NC(=O)[C@H](CCCN=C(N)N)NC(=O)[C@@H]1CCCN1C(=O)CNC(=O)[C@H](CCCN=C(N)N)NC(=O)[C@H](CCCN=C(N)N)NC(=O)CN)C(=O)N[C@@H](CC(N)=O)C(=O)N[C@@H](CCC(N)=O)C(=O)N[C@@H](CC(N)=O)C(=O)NCC(=O)N[C@H](C(=O)N[C@@H](CCCN=C(N)N)C(=O)N[C@@H](CCCN=C(N)N)C(=O)N[C@@H](CCCN=C(N)N)C(=O)N[C@@H](CCCN=C(N)N)C(=O)N[C@@H](CCCN=C(N)N)C(=O)N[C@@H](CCCN=C(N)N)C(=O)N[C@H](C(N)=O)[C@@H](C)O)[C@@H](C)O [GRRGPRRANQNGTRRRRRRT] | 25 (≈ 61.9 µg/mL) | 100 (≈ 248 µg/mL) |  |  | MIC [1]: ≥ 100 µM; MIC [4]: 25 µM (≈ 61.9 µg/mL) |
| CC[C@H](C)[C@H](NC(=O)[C@@H](NC(=O)[C@H](CC(=O)O)NC(=O)[C@H](CC(C)C)NC(=O)[C@H](CC(C)C)NC(=O)CN)[C@@H](C)O)C(=O)N[C@@H](CCCCN)C(=O)N[C@@H](CC(N)=O)C(=O)N[C@@H](CCSC)C(=O)N[C@@H](C)C(=O)N[C@@H](CC(C)C)C(=O)N[C@@H](CC(N)=O)C(=O)N[C@@H](C)C(=O)N[C@@H](C)C(=O)N[C@@H](CCCCN)C(=O)N[C@@H](CO)C(=O)N[C@@H](C)C(=O)NCC(=O)N[C@H](C(=O)N[C@@H](CO)C(=O)N[C@H](C(=O)N[C@@H](CC(C)C)C(=O)N[C@@H](CC(N)=O)C(=O)N[C@H](C(=O)N[C@@H](CC(C)C)C(=O)N[C@@H](CO)C(=O)N[C@H]1CSSC[C@@H](C(=O)O)NC(=O)[C@H]([C@@H](C)O)NC(=O)[C@H](CCCCN)NC(=O)[C@H](CO)NC(=O)[C@H](CC(C)C)NC(=O)[C@H](CCCCN)NC1=O)[C@@H](C)O)C(C)C)C(C)C [GLLDTIKNMALNAAKSAGVSVLNTLSCKLSKTC] | 2.56 (≈ 8.6 µg/mL) | 2.56 (≈ 8.6 µg/mL) | 5.11 (≈ 17.2 µg/mL) | 2.56 (≈ 8.6 µg/mL) |  |
| CC[C@H](C)[C@@H]1NC(=O)[C@H](CCCCN)NC(=O)[C@@H](NC(=O)[C@H](CCCCN)NC(=O)[C@H](CC(C)C)NC(=O)[C@H](CC(N)=O)NC(=O)[C@H](CC(=O)O)NC(=O)[C@H](CC(C)C)NC(=O)[C@H](CC(C)C)NC(=O)[C@@H](NC(=O)[C@@H](NC(=O)[C@H](C)NC(=O)[C@@H](NC(=O)[C@H](CC(N)=O)NC(=O)[C@H](CCCCN)NC(=O)[C@H](C)NC(=O)[C@@H](NC(=O)[C@H](CC(N)=O)NC(=O)[C@H](CCCCN)NC(=O)[C@H](C)NC(=O)[C@@H](NC(=O)[C@H](CC(N)=O)NC(=O)[C@H](CCSC)NC(=O)[C@H](Cc2ccccc2)NC(=O)CN)[C@@H](C)O)C(C)C)C(C)C)C(C)C)[C@@H](C)O)CSSC[C@@H](C(=O)O)NC(=O)CNC(=O)CNC(=O)[C@H]([C@@H](C)O)NC1=O [GFMNTAKNVAKNVAVTLLDNLKCKITGGC] | 2.94 (≈ 8.89 µg/mL) | 5.89 (≈ 17.8 µg/mL) | 2.94 (≈ 8.89 µg/mL) | 5.89 (≈ 17.8 µg/mL) |  |
| CC[C@H](C)[C@H](NC(=O)CN)C(=O)N[C@@H](CC(C)C)C(=O)NCC(=O)N[C@@H](CC(N)=O)C(=O)N[C@H](C(=O)N[C@H](C(=O)NCC(=O)N[C@@H](CCSC)C(=O)NCC(=O)N[C@@H](CCCCN)C(=O)N[C@@H](CCCCN)C(=O)N[C@H](C(=O)N[C@H](C(=O)N[C@H]1CSSC[C@@H](C(=O)O)NC(=O)[C@H](CC(C)C)NC(=O)CNC(=O)[C@H](CO)NC(=O)[C@H](CC(C)C)NC(=O)CNC1=O)C(C)C)C(C)C)C(C)C)[C@@H](C)CC [GILGNIVGMGKKVVCGLSGLC] | 5.6 (≈ 11.3 µg/mL) | 5.6 (≈ 11.3 µg/mL) | 3.32 (≈ 6.69 µg/mL) | 11.2 (≈ 22.6 µg/mL) |  |
| CC[C@H](C)[C@H](NC(=O)CNC(=O)[C@H](CO)NC(=O)[C@H](CC(C)C)NC(=O)[C@H](CC(C)C)NC(=O)CN)C(=O)N[C@@H](CC(C)C)C(=O)NCC(=O)N[C@@H](C)C(=O)NCC(=O)N[C@@H](CCCCN)C(=O)N[C@@H](Cc1cnc[nH]1)C(=O)N[C@H](C(=O)N[C@H](C(=O)N[C@@H](CS)C(=O)NCC(=O)N[C@@H](CC(C)C)C(=O)N[C@@H](CO)C(=O)NCC(=O)N[C@@H](CC(C)C)C(=O)N[C@@H](CCCN=C(N)N)C(=O)O)C(C)C)[C@@H](C)CC [GLLSGILGAGKHIVCGLSGLR] |  |  |  |  | MIC (Candida albicans): 0.544 µM (≈ 1.1 µg/mL); MIC (Staphylococcus aureus): 4.64 µM (≈ 9.37 µg/mL); MIC (Bacillus subtilis): 9.28 µM (≈ 18.8 µg/mL); MIC (Escherichia coli): 2.32 µM (≈ 4.68 µg/mL) |
| CC[C@H](C)[C@H](NC(=O)[C@H](CCC(N)=O)NC(=O)[C@H](CC(C)C)NC(=O)[C@H](CCC(N)=O)NC(=O)[C@@H](NC(=O)[C@H](CCCCN)NC(=O)[C@H](Cc1ccccc1)NC(=O)[C@H](Cc1c[nH]c2ccccc12)NC(=O)[C@@H](N)CCCN=C(N)N)[C@@H](C)CC)C(=O)N[C@@H](CCCN=C(N)N)C(=O)N[C@@H](CCCN=C(N)N)C(=O)N[C@@H](Cc1c[nH]c2ccccc12)C(=O)N[C@@H](CCCCN)C(=O)N[C@@H](CC(N)=O)C(=O)N[C@@H](CCCCN)C(=O)N[C@@H](CCCCN)C(N)=O [RWFKIQLQIRRWKNKK] | 32 (≈ 71.3 µg/mL) |  |  |  | MIC [1]: 16 µM (≈ 35.6 µg/mL) |
| CC[C@H](C)[C@H](NC(=O)CNC(=O)[C@H](CCCCN)NC(=O)CNC(=O)[C@H](C)NC(=O)[C@H](Cc1ccccc1)NC(=O)[C@H](CCCCN)NC(=O)[C@H](CO)NC(=O)[C@H](Cc1ccccc1)NC(=O)[C@H](CC(C)C)NC(=O)CN)C(=O)N[C@H](C(=O)N[C@@H](CC(N)=O)C(=O)N[C@@H](Cc1ccccc1)C(=O)N[C@@H](CC(C)C)C(=O)N[C@H](C(=O)N[C@@H](CCC(=O)O)C(=O)NCC(=O)N[C@H](C(=O)N[C@@H](CCC(=O)O)C(=O)O)C(C)C)[C@@H](C)CC)C(C)C [GLFSKFAGKGIVNFLIEGVE] | 14.3 (≈ 30.5 µg/mL) | 7.2 (≈ 15.3 µg/mL) | 14.3 (≈ 30.5 µg/mL) | 7.2 (≈ 15.3 µg/mL) |  |
